The subject of one experiment is A427 cells. The experiment is described as follows: A427 cell growth study (DNA content, Hoechst 33258). In kind it is cell-based. The note with it: suboptimal doses, single agent, Day 6. The procedure: Experiment method: 3000 of A427 cells were seeded in 96-well pates and allowed to adhere overnight. Treatments with Compound (1A) and/or Triapine were added the next day. Cells were harvested at Day 6 and were assayed for DNA content using Hoechst 33258. Fluorescence intensity was read at excitation 346 nm and emission 460 nm using a plate reader. Data shown in FIG. 27 are representative of three independent experiments (raw fluorescence reading).

The next experiment has as its system TOV21G xenograft. The experiment is described as follows: TOV21G xenograft model. Type of experiment: in vivo, BALB/c nude mice. The settings on record: 50 mg/kg i.p. once per week. The procedure: TOV21G xenograft model was established by the inoculation of 200 µL of TOV-21G tumor cell suspension (5×10^6 cells/mouse, with 50% Matrigel) subcutaneously into the right subaxillary of BALB/c nude mice. When tumors reached approximately 100 to 150 mm^3, tumor bearing animals were randomly distributed into treatment groups of 10 animals each. Animals were orally dosed with vehicle or Compound (1A) at 60 mg/kg for 19 days, carboplatin at 50 mg/kg by the i.p. injection once per week, and Compound (1A) treatment in combination with carboplatin. Tumor volumes were evaluated twice per week to calculate tumor volume over time, and the mice were weighed twice per week as a surrogate for signs of toxicity.

The subject of a further experiment is OVCAR3 xenograft. The experiment is described as follows: OVCAR3 ovarian tumor model, Doxorubicin combination. In kind it is in vivo, BABL/c nude mice. The settings on record: OVCAR3, 2.5 mg/kg i.p. once per week for 4 weeks, single agent.
A further experiment deals with x2-MDA-MB-468 tumor. The experiment is described as follows: x2 MDA-MB-468 TNBC tumor model, Niraparib combination. Type of experiment: in vivo, mouse. The settings on record: x2-MDA-MB-468, 45 mg/kg orally, 7 days on, 7 days off for 4 cycles.
The subject of another experiment is KMS-12-BM cells. The experiment is described as follows: CellTiter-Glo cell proliferation assay, KMS-12-BM. In kind it is cell-based. The note with it: Homo sapiens, 90 nM, 72 hrs. The method, then: (§1) Cell proliferation was measured using the CellTiter-Glo® Luminescent Cell Viability Assay. The assay involved the addition of a single reagent (CellTiter-Glo® Reagent) directly to cells cultured in serum-supplemented medium. KMS-12-BM, OPM-2 and MOLP8 cells were cultured according to DSMZ recommendations and were seeded at 20,000 cells per well. Each compound evaluated was prepared as a DMSO stock solution (10 mM). Compounds were tested in triplicate on each plate, with a single concentration indicated in each table. Compound treatment (10.0 µL) was added to the cells from the 10x concentration of each compound. Plates were then incubated at 37° C., 5% CO2. After 72 hrs, cell plates were equilibrated at room temperature (rt) for approximately 30 mins. An equi-volume amount of CellTiter-Glo® Reagent (100 µL) was added to each well. Plates were mixed for 2 mins on an orbital shaker to induce cell lysis and then incubated at rt for 10 mins to stabilize the luminescent signal. Luminescence was recorded using a SpectraMAX, M5e plate reader according to CellTiter-Glo protocol.

In another experiment the test system is OPM-2 cells. The experiment is described as follows: CellTiter-Glo cell proliferation assay, OPM-2. Type of experiment: cell-based. The note with it: Homo sapiens; OPM-2, 50 nM, 72 hrs. The method, then:
as §1

The test system of the next experiment is MOLP-8 cells. The experiment is described as follows: CellTiter-Glo cell proliferation assay, MOLP-8. Type of experiment: cell-based. The settings on record: Homo sapiens; MOLP-8, 2 nM, 72 hrs. The method, then:
as §1

SMILES strings stand for the structures.

Experimental for OVCAR3 xenograft: OVCAR3 xenograft model was established by the inoculation of 200 µL of OVCAR3 tumor cell suspension (1×10^7 cells/mouse, with 50% Matrigel) subcutaneously into the right subaxillary of BABL/c nude mice. When tumors reached approximately 180.8 mm^3, tumor bearing animals were randomly distributed into treatment groups of 10 animals each. […] Tumor volumes were evaluated twice per week to calculate tumor volume over time, and the mice were weighed twice per week as a surrogate for signs of toxicity.
Experimental for x2-MDA-MB-468 tumor: The x2-MDA-MB-468 cells (ATCC-Chempartner) were maintained in vitro as a monolayer culture in DMEM medium added with 10% FBS, 100 U/mL penicillin and 100 µg/mL streptomycin at 37° C. in an atmosphere of 5% CO2 in air. Each mouse was implanted subcutaneously on right flank with 1 × 10^7 x2-MDA-MD-468 cells in 0.2 mL mixture of RPMI1640 medium with BD Matrigel (base medium: Matrigel=100 uL:100 uL) for tumor development. […] Tumor volumes were evaluated twice per week to calculate tumor volume over time, and the mice were weighed twice per week as a surrogate for signs of toxicity.

As for `NC(=S)N/N=C/c1ncccc1N` [Triapine], in the experiment on A427 cells, the A427 cell growth result is recorded as “do not inhibit A427 cell growth”. As for `N.N.O=C([O-])C1(C(=O)[O-])CCC1.[Pt+2]` [carboplatin], in the experiment on TOV21G xenograft, the TGI stood at 89.75%. `COc1cccc2c1C(=O)c1c(O)c3c(c(O)c1C2=O)C[C@@](O)(C(=O)CO)C[C@@H]3O[C@H]1C[C@H](N)[C@H](O)[C@H](C)O1` [doxorubicin]: the TGI in the experiment with OVCAR3 xenograft is 43.11%.

Turning to `NC(=O)c1cccc2cn(-c3ccc([C@@H]4CCCNC4)cc3)nc12` [niraparib], the TGI in the experiment on x2-MDA-MB-468 tumor is listed as 47.7%. Molecule `Nc1ccn([C@@H]2O[C@H](CO)[C@@H](O)C2(F)F)c(=O)n1` [Gemcitabine] had an inhibition at 0.09 µM in the experiment on KMS-12-BM cells of 38%. Moreover, in the experiment on OPM-2 cells, the inhibition at 0.05 µM stood at 35.1%. The molecule further yielded an inhibition at 0.002 µM with MOLP-8 cells of 22%.
